Source: ChEMBL document CHEMBL3045432, “Synthesis and Fungicidal Activity of -Cyanoacetamide Derivatives: Discovery of a New Rice Blast Fungicide, Diclocymet (S-2900)” (2002)

Key:
Type in all cases: functional
Pyricularia grisea [1] = test: Fungicidal activity against Magnaporthe grisea in rice plant assessed as prevention from rice blast disease measured as lesions under greenhouse at > 200 ppm for 8 days by soil drench compound treated before inoculation
Pyricularia grisea [2] = test: Fungicidal activity against Magnaporthe grisea in rice plant assessed as prevention from rice blast disease measured as lesions under greenhouse at > 200 ppm for 8 days by foliar spray compound treated before inoculation
Pyricularia grisea [3] = test: Fungicidal activity against Magnaporthe grisea in rice plant assessed as prevention from rice blast disease measured as lesions under greenhouse at 200 ppm for 8 days by foliar spray compound treated before inoculation
Pyricularia grisea [4] = test: Fungicidal activity against Magnaporthe grisea in rice plant assessed as prevention from rice blast disease measured as lesions under greenhouse at 50 ppm for 8 days by soil drench compound treated before inoculation
Pyricularia grisea [5] = test: Fungicidal activity against Magnaporthe grisea in rice plant assessed as prevention from rice blast disease measured as lesions under greenhouse at 200 ppm for 8 days by soil drench compound treated before inoculation
Pyricularia grisea [6] = test: Fungicidal activity against Magnaporthe grisea in rice plant assessed as prevention from rice blast disease measured as lesions under greenhouse at 50 ppm for 8 days by foliar spray compound treated before inoculation
Pyricularia grisea [7] = test: Fungicidal activity against Magnaporthe grisea in rice plant assessed as prevention from rice blast disease measured as lesions under greenhouse at 12.5 ppm for 8 days by soil drench compound treated before inoculation
Pyricularia grisea [8] = test: Fungicidal activity against Magnaporthe grisea in rice plant assessed as prevention from rice blast disease measured as lesions under greenhouse at 3.1 ppm for 8 days by foliar spray compound treated before inoculation
Pyricularia grisea [9] = test: Fungicidal activity against Magnaporthe grisea in rice plant assessed as rice blast disease measured as damage under greenhouse at 0.4 ppm for 8 days by foliar spray compound treated before inoculation
Pyricularia grisea [10] = test: Fungicidal activity against Magnaporthe grisea in rice plant assessed as rice blast disease measured as damage under greenhouse at 25 ppm for 8 days by foliar spray compound treated before inoculation
Pyricularia grisea [11] = test: Fungicidal activity against Magnaporthe grisea in rice plant assessed as rice blast disease measured as damage under greenhouse at 6.3 ppm for 8 days by foliar spray compound treated before inoculation
Pyricularia grisea [12] = test: Fungicidal activity against Magnaporthe grisea in rice plant assessed as rice blast disease measured as damage under greenhouse at 1.6 ppm for 8 days by foliar spray compound treated before inoculation
Pyricularia grisea [13] = test: Fungicidal activity against Magnaporthe grisea in rice plant assessed as rice blast disease measured as damage under greenhouse by foliar spray for 8 days compound treated before inoculation; details: 192 h

Structure (SMILES) | Activity (Pyricularia grisea [1]) | Activity (Pyricularia grisea [2]) | Activity (Pyricularia grisea [3]) | other results
CC(C)=C(C#N)C(=O)NC(C)c1ccc(Cl)cc1 (centres undefined) | <=10% | <=10% | – | –
CC(NC(=O)C1(C#N)CCCC1)c1ccc(Cl)cc1 (centres undefined) | <=10% | <=10% | – | –
CC(NC(=O)C1(C#N)CCCCC1)c1ccc(Cl)cc1 (centres undefined) | <=10% | <=10% | – | –
CCC(C#N)(CC)C(=O)NC(C)c1ccc(Cl)cc1 (centres undefined) | <=10% | <=10% | – | –
CC(NC(=O)C(C)(C#N)C(C)(C)C)c1ccc(Cl)cc1 (centres undefined) | <=10% | – | <=10% | –
CC(NC(=O)C(Br)(C#N)C(C)(C)C)c1ccc(Cl)cc1 (centres undefined) | – | – | <=10% | Activity (Pyricularia grisea [4]): <=10%
CC(NC(=O)C(C)(C#N)C(C)C)c1ccc(Cl)cc1 (centres undefined) | <=10% | <=10% | – | –
CC(NC(=O)C(C)(C)C#N)c1ccc(Cl)cc1 (centres undefined) | <=10% | <=10% | – | –
CC(NC(=O)C(C#N)c1ccccc1)c1ccc(Cl)cc1 (centres undefined) | <=10% | <=10% | – | –
CC(NC(=O)C(C#N)C1CCCC1)c1ccc(Cl)cc1 (centres undefined) | – | – | – | Activity (Pyricularia grisea [5]): <=10%; Activity (Pyricularia grisea [6]): <=10%
CC(NC(=O)C(C#N)C1CCCCC1)c1ccc(Cl)cc1 (centres undefined) | <=10% | – | <=10% | –
C#CC(C)(C)C(C#N)C(=O)NC(C)c1ccc(Cl)cc1 (centres undefined) | – | – | – | Activity (Pyricularia grisea [7]): <=10%; Activity (Pyricularia grisea [8]): <=10%
C=CC(C)(C)C(C#N)C(=O)NC(C)c1ccc(Cl)cc1 (centres undefined) | – | – | – | Activity (Pyricularia grisea [7]): <=10%; Activity (Pyricularia grisea [8]): <=10%
CC(NC(=O)C(C#N)CC(C)(C)C)c1ccc(Cl)cc1 (centres undefined) | – | – | <=10% | Activity (Pyricularia grisea [4]): <=10%
CCC(CC)C(C#N)C(=O)NC(C)c1ccc(Cl)cc1 (centres undefined) | – | – | – | Activity (Pyricularia grisea [4]): <=10%; Activity (Pyricularia grisea [8]): <=10%
CCC(C)C(C#N)C(=O)NC(C)c1ccc(Cl)cc1 (centres undefined) | – | – | – | Activity (Pyricularia grisea [4]): <=10%; Activity (Pyricularia grisea [6]): <=10%
CC(C)CC(C#N)C(=O)NC(C)c1ccc(Cl)cc1 (centres undefined) | – | – | <=10% | Activity (Pyricularia grisea [5]): <=10%

Structure (SMILES) | Activity (Pyricularia grisea [1]) | Activity (Pyricularia grisea [2]) | Activity (Pyricularia grisea [3]) | other results
CCCCC(C#N)C(=O)NC(C)c1ccc(Cl)cc1 (centres undefined) | – | – | – | Activity (Pyricularia grisea [5]): <=10%; Activity (Pyricularia grisea [6]): <=10%
CC(NC(=O)C(C#N)C(C)C)c1ccc(Cl)cc1 (centres undefined) | – | – | <=10% | Activity (Pyricularia grisea [4]): <=10%
CC(C#N)C(=O)NC(C)c1ccc(Cl)cc1 (centres undefined) | <=10% | <=10% | – | –
CC(NC(=O)C(C(C)(C)C)S(C)(=O)=O)c1ccc(Cl)cc1 (centres undefined) | <=10% | – | <=10% | –
CC(NC(=O)C(O)C(C)(C)C)c1ccc(Cl)cc1 (centres undefined) | <=10% | <=10% | <=10% | –
CC(NC(=O)C([S+](C)[O-])C(C)(C)C)c1ccc(Cl)cc1 (centres undefined) | <=10% | <=10% | – | –
COC(C(=O)NC(C)c1ccc(Cl)cc1)C(C)(C)C (centres undefined) | <=10% | <=10% | <=10% | –
C#CC(C(=O)NC(C)c1ccc(Cl)cc1)C(C)(C)C (centres undefined) | <=10% | – | <=10% | –
CC(NC(=O)C(C#N)C(C)(C)C)c1ccc(Cl)cc1 (centres undefined) | – | – | – | Activity (Pyricularia grisea [7]): <=10%; Activity (Pyricularia grisea [8]): <=10%
CC(NC(=O)C(F)C(C)(C)C)c1ccc(Cl)cc1 (centres undefined) | <=10% | <=10% | – | –
CSC(C(=O)NC(C)c1ccc(Cl)cc1)C(C)(C)C (centres undefined) | <=10% | – | <=10% | –
CC(NC(=O)C(Br)C(C)(C)C)c1ccc(Cl)cc1 (centres undefined) | – | – | – | Activity (Pyricularia grisea [5]): <=10%
CC(C)(C)C(C#N)C(=O)NCCc1ccc(Cl)cc1 (centres undefined) | <=10% | – | <=10% | –
CC(Cc1ccc(Cl)cc1)NC(=O)C(C#N)C(C)(C)C (centres undefined) | <=10% | – | <=10% | –
COC(NC(=O)C(C#N)C(C)(C)C)c1ccc(Cl)cc1 (centres undefined) | <=10% | <=10% | – | –
C[C@@H](NC(=O)C(C#N)C(C)(C)C)c1ccc(Cl)cc1Cl (mixture of isomers) [DICLOCYMET] | – | – | – | Activity (Pyricularia grisea [9]): 2%; Activity (Pyricularia grisea [10]): 4%; Activity (Pyricularia grisea [11]): 4%; Activity (Pyricularia grisea [12]): 3%; MIC (Pyricularia grisea [13]): 0.08 µg/mL
O=C1OCc2c(Cl)c(Cl)c(Cl)c(Cl)c21 [4,5,6,7-TETRACHLOROPHTHALIDE] | – | – | – | Activity (Pyricularia grisea [9]): 0%; Activity (Pyricularia grisea [10]): 4%; Activity (Pyricularia grisea [11]): 1%; Activity (Pyricularia grisea [12]): 0%
